Measured values: ChEMBL document CHEMBL1201862, “PubChem BioAssay data set” (2004)
Active and inactive are the calls of the source.

How the values were obtained:
[1] = target: T1, Tyrosyl-DNA phosphodiesterase 2 (Homo sapiens, UniProt O95551); experiment: human TDP2 enzyme inhibitors, dose response, biochemical, epi absorbance, IC50 (AID 743297)
T1 sequence (O95551 whole entry): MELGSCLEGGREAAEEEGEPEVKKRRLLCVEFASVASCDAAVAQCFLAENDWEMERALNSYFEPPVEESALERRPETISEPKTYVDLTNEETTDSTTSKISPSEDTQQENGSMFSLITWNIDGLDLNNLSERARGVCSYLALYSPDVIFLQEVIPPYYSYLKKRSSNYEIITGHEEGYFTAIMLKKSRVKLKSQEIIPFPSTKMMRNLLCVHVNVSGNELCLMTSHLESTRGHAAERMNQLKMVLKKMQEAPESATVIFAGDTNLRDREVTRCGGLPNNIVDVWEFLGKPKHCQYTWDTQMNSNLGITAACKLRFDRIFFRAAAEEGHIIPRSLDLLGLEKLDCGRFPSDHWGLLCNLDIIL

[2] = target: T2, Histone-lysine N-methyltransferase NSD2 (Homo sapiens, UniProt O96028); assay type: biochemical
T2 sequence (O96028 whole entry): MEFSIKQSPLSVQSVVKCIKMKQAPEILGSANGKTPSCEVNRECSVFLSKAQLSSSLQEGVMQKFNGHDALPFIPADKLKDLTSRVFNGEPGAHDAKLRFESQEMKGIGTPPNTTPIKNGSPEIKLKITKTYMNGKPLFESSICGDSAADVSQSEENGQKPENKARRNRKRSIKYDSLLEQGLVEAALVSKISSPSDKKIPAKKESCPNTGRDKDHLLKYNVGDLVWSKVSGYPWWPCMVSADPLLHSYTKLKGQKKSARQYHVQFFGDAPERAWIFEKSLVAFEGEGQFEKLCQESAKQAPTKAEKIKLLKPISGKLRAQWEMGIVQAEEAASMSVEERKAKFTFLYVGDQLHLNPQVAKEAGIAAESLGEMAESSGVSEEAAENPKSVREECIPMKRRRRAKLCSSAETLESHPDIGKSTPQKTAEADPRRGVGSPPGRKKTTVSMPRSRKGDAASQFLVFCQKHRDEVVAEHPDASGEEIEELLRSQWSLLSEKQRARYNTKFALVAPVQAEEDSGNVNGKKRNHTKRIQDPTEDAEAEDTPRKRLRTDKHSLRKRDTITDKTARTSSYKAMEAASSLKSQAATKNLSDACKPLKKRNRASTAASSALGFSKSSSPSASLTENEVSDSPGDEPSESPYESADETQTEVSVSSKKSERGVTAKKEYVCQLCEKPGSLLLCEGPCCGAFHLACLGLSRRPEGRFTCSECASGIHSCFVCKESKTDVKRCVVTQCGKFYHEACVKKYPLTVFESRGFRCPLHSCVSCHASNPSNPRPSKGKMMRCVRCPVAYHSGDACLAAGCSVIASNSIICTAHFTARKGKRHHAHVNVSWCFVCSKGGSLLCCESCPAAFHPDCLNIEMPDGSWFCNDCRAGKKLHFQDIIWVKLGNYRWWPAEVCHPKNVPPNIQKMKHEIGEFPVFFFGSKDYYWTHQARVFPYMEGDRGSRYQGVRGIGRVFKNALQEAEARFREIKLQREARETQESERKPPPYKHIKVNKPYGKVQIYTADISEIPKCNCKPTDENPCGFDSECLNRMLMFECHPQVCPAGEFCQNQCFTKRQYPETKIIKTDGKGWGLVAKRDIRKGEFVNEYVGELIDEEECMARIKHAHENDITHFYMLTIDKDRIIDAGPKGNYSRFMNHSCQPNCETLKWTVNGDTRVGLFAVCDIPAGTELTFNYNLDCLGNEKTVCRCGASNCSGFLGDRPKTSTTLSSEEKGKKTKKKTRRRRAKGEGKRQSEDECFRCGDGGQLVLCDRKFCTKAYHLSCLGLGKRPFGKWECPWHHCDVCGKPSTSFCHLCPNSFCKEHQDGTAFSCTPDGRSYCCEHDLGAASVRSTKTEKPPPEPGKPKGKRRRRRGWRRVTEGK

[3] = target: T3, Protein RecA (Mycobacterium tuberculosis, UniProt P9WHJ3); experiment: Fluorescence Cell-Free Homogeneous Dose Retest to Identify Inhibitors of RecA-Intein Splicing Activity. [Related pubchem assays (depositor defined):AID2097, AID2223, AID489010, AID492950]; assay type: functional
T3 sequence (P9WHJ3 whole entry): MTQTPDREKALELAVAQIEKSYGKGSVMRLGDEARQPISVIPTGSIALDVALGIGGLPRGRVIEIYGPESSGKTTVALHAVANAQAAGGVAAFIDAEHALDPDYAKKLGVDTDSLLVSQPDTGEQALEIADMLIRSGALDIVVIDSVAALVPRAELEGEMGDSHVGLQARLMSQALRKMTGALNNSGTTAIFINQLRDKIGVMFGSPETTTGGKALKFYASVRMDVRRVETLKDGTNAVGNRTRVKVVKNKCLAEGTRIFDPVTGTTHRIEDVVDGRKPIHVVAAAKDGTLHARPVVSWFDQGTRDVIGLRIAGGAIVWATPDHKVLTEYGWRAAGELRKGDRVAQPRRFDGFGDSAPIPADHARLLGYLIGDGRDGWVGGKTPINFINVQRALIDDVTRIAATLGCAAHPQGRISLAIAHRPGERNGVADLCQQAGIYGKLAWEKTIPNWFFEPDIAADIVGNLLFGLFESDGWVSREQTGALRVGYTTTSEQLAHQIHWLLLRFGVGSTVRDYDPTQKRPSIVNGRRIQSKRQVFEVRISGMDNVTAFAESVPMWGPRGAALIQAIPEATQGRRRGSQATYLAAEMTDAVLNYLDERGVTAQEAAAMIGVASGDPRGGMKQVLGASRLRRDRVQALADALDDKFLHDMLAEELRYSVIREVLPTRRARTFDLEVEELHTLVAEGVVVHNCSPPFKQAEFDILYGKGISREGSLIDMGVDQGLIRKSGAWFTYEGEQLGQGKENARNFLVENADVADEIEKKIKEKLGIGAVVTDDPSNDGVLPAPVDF

[4] = HEK293 cell cytotoxicity, dose response, cytotoxicity control, plate reader, cherry-picked samples (AID 743446); assay type: functional, cell-based
[5] = system: BJ; experiment: cells; assay type: functional, cell-based; conditions: Homo sapiens
[6] = LGR2 antagonists, dose response, cell-based, HEK293, CRE-luciferase reporter, cherry pick, set 2 (AID 743343); assay type: functional;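 further: transfected cells were stimulated with diluted bursicon conditioned medium after compound addition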
[7] = A549 cell cytotoxicity, dose response, cytotoxicity control, plate reader, cherry-pick, antagonist series (AID 743412); assay type: functional, cell-based
[8] = system: BJ; experiment: cytotoxicity toward BJ-TERT fibroblasts, dose response, cell-based, RAS-independent, luminescence (AID 1933); assay type: functional; conditions: Homo sapiens
[9] = MC4R antagonists, dose response, counter-screen for LGR2 antagonist project, cell-based, plate reader, cherry pick (AID 743444); assay type: functional;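 further: transfected HEK 293 cells stimulated with alpha-MSH peptide; potency of inhibitors of the alpha-MSH evoked signal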
[10] = cytotoxicity toward DRD oncogenic fibroblasts, dose response, cell-based, non-viral oncogenic, luminescence (AID 1934); assay type: functional; conditions: Homo sapiens
[11] = target: T4, Replicative DNA helicase DnaB (Mycobacterium tuberculosis, UniProt P9WMR3); experiment: DnaB intein splicing inhibitors, dose response, biochemical, cell-free fluorescence (AID 449749); assay type: functional
T4 sequence (P9WMR3 whole entry): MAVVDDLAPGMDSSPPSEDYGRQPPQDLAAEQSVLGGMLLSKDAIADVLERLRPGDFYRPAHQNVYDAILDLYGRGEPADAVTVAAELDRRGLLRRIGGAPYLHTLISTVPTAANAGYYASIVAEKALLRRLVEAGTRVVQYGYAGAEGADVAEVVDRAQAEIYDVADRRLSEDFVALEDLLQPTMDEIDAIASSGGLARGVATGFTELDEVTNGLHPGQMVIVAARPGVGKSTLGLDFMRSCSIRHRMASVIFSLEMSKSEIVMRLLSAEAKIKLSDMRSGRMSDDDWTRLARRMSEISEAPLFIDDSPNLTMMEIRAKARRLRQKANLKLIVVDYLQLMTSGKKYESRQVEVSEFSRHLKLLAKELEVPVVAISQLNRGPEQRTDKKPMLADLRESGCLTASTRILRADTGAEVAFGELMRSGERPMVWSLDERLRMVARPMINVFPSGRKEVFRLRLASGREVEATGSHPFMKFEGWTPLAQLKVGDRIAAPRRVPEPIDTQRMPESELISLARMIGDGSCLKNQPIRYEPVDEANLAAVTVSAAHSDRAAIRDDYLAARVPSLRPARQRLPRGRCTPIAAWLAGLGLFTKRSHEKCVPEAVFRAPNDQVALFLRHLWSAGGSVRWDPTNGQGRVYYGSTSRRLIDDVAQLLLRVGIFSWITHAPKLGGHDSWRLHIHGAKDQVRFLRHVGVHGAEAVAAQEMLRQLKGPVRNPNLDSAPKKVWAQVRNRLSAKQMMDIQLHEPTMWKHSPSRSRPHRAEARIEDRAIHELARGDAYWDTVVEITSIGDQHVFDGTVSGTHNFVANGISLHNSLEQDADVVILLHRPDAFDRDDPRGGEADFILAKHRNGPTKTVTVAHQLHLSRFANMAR

[12] = HepG2 cell cytotoxicity, dose response, cytotoxicity control, plate reader, cherry-pick, antagonist series (AID 743416); assay type: functional, cell-based
[13] = system: BJ; experiment: cytotoxicity toward BJ-TERT-LT-ST fibroblasts, dose response, cell-based, RAS-independent, luminescence (AID 1935); assay type: functional; conditions: Homo sapiens;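 further: BJ fibroblasts immortalized with TERT plus LT and ST oncogenes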
[14] = target: T5, fMet-Leu-Phe receptor (Homo sapiens, UniProt P21462); experiment: FPR ligands, dose response (AID 519); assay type: functional
T5 sequence (P21462 whole entry): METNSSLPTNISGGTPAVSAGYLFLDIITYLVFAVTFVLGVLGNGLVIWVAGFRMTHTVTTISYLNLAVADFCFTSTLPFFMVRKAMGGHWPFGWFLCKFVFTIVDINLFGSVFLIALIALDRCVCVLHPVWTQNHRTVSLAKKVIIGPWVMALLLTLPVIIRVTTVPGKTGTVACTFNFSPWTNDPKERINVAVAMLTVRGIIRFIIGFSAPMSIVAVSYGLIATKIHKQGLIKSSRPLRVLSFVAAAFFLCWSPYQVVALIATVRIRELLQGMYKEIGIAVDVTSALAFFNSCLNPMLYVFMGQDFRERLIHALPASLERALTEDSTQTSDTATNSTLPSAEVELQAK

[15] = target: T6, Cytochrome P450 1A2 (Homo sapiens, UniProt P05177);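 further: PubChem cytochrome P450 panel assay, CYP1A2 panel member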
T6 sequence (P05177 whole entry): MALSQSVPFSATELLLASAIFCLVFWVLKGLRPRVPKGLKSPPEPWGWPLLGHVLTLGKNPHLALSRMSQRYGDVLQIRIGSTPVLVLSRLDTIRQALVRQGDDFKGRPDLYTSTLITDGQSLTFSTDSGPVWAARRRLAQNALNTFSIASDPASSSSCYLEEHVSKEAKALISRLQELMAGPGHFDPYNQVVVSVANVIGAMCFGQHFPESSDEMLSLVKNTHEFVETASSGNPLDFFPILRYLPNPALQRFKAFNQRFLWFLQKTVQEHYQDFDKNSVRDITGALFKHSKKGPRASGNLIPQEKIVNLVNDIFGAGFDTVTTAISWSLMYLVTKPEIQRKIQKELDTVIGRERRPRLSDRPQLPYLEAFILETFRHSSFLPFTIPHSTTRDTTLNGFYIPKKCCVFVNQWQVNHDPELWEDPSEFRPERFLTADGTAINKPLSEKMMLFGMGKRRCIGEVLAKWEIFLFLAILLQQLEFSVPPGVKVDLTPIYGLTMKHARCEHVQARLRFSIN

[16] = non-specific cell cytotoxicity, dose response, cytotoxicity control for PAX8 inhibitor project, plate reader, dry powder samples (AID 743021); assay type: functional, cell-based
[17] = cytotoxicity in OVCAR8 ovarian cancer cells, dose response, PAX8 project, cell-based, plate reader, dry powder samples (AID 743197); assay type: functional; conditions: OVCAR-8
[18] = target: Paired box protein Pax-8 (Homo sapiens, UniProt Q06710); experiment: inhibitors of PAX8-driven TPO luciferase reporter, dose response, RMG-I cells, cherry-pick (AID 687027); assay type: functional, cell-based;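 further: luciferase reporter driven by Pax8 target thyroperoxidase promoter measured by SteadyGlo luminescence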
[19] = NIH:OVCAR-3 ovarian cancer cell cytotoxicity, dose response, PAX8 inhibitor project, plate reader, dry powder samples (AID 743044); assay type: functional, cell-based

Chain of Paired box protein Pax-8 (Q06710 whole entry): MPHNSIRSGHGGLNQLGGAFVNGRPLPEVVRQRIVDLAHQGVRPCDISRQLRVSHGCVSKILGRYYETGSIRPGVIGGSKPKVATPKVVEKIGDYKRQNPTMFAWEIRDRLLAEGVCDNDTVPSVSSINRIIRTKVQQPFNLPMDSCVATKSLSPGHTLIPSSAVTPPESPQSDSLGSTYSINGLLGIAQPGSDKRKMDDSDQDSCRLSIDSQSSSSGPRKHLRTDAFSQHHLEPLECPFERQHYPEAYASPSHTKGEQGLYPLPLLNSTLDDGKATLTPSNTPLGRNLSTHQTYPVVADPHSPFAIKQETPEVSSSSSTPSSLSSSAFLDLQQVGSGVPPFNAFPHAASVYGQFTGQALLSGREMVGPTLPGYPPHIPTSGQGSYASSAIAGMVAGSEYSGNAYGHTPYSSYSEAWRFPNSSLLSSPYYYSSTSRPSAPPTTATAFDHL

In the case of `S=C(Nc1ccc2nsnc2c1)N1CCCCC1`, the IC50 [1] is reported as > 128 µM (inactive) and the AC50 [2] is reported as 5.13 µM (active).

For `O=[N+]([O-])c1ccc(Sc2nnnn2-c2ccccc2)nc1`, the EC50 [3] was 5.61 µM (active), the AC50 [4] was 12.5 µM (active) and the EC50 [5] was 63.6 µM (inconclusive). For the same molecule, the AC50 [6] was 14.9 µM (active), the AC50 [7] was 18.5 µM (active) and the EC50 [8] was 6.26 µM (active). The AC50 [9] was 17.6 µM (active), the EC50 [10] was 9.86 µM (active) and the AC50 [11] was 14.5 µM (active). For the same molecule, the AC50 [12] was 15.7 µM (active) and the EC50 [13] was > 150 µM (inconclusive).

With `C[N+]1(C)[C@@H]2C[C@@H](OC(=O)[C@H](CO)c3ccccc3)C[C@H]1[C@@H]1O[C@@H]12` the Ki [14] was > 66.7 µM (inactive).

In the case of `COC(=O)Cc1n[nH]c2c1C(C1C=CCCC1)C(C#N)=C(N)O2` (configuration not stated), the Ki [14] is reported as > 66.7 µM (inactive).

With `Cc1cccc(Cn2ncc(Cl)c(Cl)c2=O)c1` the EC50 [3] was 6.04 µM (active), the AC50 [4] was 17.4 µM (active) and the AC50 [15] was 22.4 µM (inconclusive). For the same molecule, the AC50 [7] was 30 µM (active), the AC50 [11] was 27.5 µM (active) and the AC50 [12] was 37.3 µM (active).

With `C[C@H](CO)N1C[C@H](C)[C@H](CN(C)S(=O)(=O)c2ccc(Cl)cc2)Oc2c(NC(=O)Nc3ccc(F)cc3)cccc2C1=O` the AC50 [16] was 51.4 µM (active), the AC50 [17] was 31.8 µM (active) and the AC50 [18] was 10.2 µM (active). The AC50 [19] was 31.8 µM (active).

For `C[C@@H]1CCCCO[C@H](CN(C)S(=O)(=O)c2ccc(F)cc2)[C@H](C)CN([C@@H](C)CO)C(=O)c2cc(NS(=O)(=O)c3ccc(Cl)cc3)ccc2O1`, the AC50 [16] was 68.4 µM (active) and the AC50 [18] was 9.75 µM (active).
